Assay results as given in patent US12247010B2, “Tubulin inhibitors” (LIN BIOSCIENCE PTY LTD., priority 2017, dated 2025).

What was measured:
tubulin = test: Tubulin polymerization assay (Cytoskeleton, Inc. inhibitor screening protocol); assay type: biochemical; details: 3 μM, 37C, compared to DMSO control
Method: Example 4. Tubulin Polymerization Assay
Compounds described herein were tested in a tubulin polymerization inhibition assay using the general manufacturer's protocol for inhibitor screening (Cytoskeleton, Inc. BK01 IP). DMSO was used as a negative control, and vinblastine was tested as a positive control. All compounds were tested at a concentration of 3 μM, and incubation was carried out at 37C for 60 minutes. Results were calculated as a percent inhibition (compared to DMSO control) after 60 min of incubation, the results of which are shown in Table 3.

U87MG cells = test: Cytotoxicity assay (cell viability, CellTiter 96 Aqueous MTS); assay type: cell-based; details: Homo sapiens, U-87 MG, 72 h, 72 hours incubation, starting concentration 50 uM, 9 point half log dilution, average where tested repeatedly
In short: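 U87MG cells plated at 7×10^3 cells/well overnight, then treated 72 h with 9-point half-log dilutions from a 50 uM starting concentration. Viability measured with CellTiter 96 Aqueous MTS; IC50 calculated from viability.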

SMILES | % Tubulin Polymerization at 60 min (tubulin) | IC50 (U87MG cells) [µM]
Cc1ccc(C(=O)NCCCc2ccc(-c3ccc4c(cnn4C)c3)cc2)cn1 [Compound 226, 6-methyl-N-(3-(4-(1-methyl-1H-indazol-5-yl)phenyl)propyl)nicotinamide] | C (C is 41-60%) | < 0.5
Cc1ccc(C(=O)NCCCc2ccc(-c3ccc4[nH]ncc4c3C)cc2)cn1 [Compound 243, 6-methyl-N-(3-(4-(4-methyl-1H-indazol-5-yl)phenyl)propyl)nicotinamide] | A (A is < 20%) | < 0.5
Cc1ncc(C(=O)NCCCc2ccc(-c3ccccc3F)cc2)s1 [Compound 138, N-(3-(2′-fluoro-[1,1′-biphenyl]-4-yl)propyl)-2-methylthiazole-5-carboxamide] | A (A is < 20%) | < 0.5
CC[C@]1(O)C[C@@H]2CN(CCc3c([nH]c4ccccc34)[C@@](C(=O)OC)(c3cc4c(cc3OC)N(C)[C@H]3[C@@](O)(C(=O)OC)[C@H](OC(C)=O)[C@]5(CC)C=CCN6CC[C@]43[C@@H]65)C2)C1 [Vinblastine, vinblastine, reference compound] | A (A is < 20%) | 
O=C(CCCc1ccc(-c2ccccc2F)cc1)Nc1ccon1 [Compound 63, 4-(2′-fluoro-[1,1′-biphenyl]-4-yl)-N-(isoxazol-3-yl)butanamide] |  | > 5
O=C(CCCc1ccc(-c2cnc3[nH]ncc3c2)cc1)Nc1cccnc1 [Compound 210, 4-(4-(1H-pyrazolo[3,4-b]pyridin-5-yl)phenyl)-N-(pyridin-3-yl)butanamide] |  | < 0.5
Cc1cc(-c2ccc(CCCC(=O)Nc3cccnc3)cc2)ccn1 [Compound 156, 4-(4-(2-methylpyridin-4-yl)phenyl)-N-(pyridin-3-yl)butanamide] |  | > 5
COc1ccc(-c2ccc(CCCC(=O)Nc3cccnc3)cc2)cc1OC [Compound 168, 4-(3′,4′-dimethoxy-[1,1′-biphenyl]-4-yl)-N-(pyridin-3-yl)butanamide] |  | 1 to 5
Cc1ccc(NC(=O)OCCc2ccc(-c3ccccc3F)cc2)cn1 [Compound 274, 2-(2′-fluoro-[1,1′-biphenyl]-4-yl)ethyl (6-methylpyridin-3-yl)carbamate] |  | > 5
Cc1nn(C)cc1C(=O)NCCCc1ccc(-c2ccccc2F)cc1 [Compound 133, N-(3-(2′-fluoro-[1,1′-biphenyl]-4-yl)propyl)-1,3-dimethyl-1H-pyrazole-4-carboxamide] |  | > 5
Cc1ccc(C(=O)NCCCc2ccc(-c3cnc4[nH]ccc4c3)cc2)cn1 [Compound 229, N-(3-(4-(1H-pyrrolo[2,3-b]pyridin-5-yl)phenyl)propyl)-6-methylnicotinamide] |  | < 0.5
Cc1noc(C)c1C(=O)NCCCc1ccc(-c2ccccc2F)cc1 [Compound 144, N-(3-(2′-fluoro-[1,1′-biphenyl]-4-yl)propyl)-3,5-dimethylisoxazole-4-carboxamide] |  | > 5
O=C(CCCc1ccc(-c2ccc3ocnc3c2)cc1)Nc1cccnc1 [Compound 173, 4-(4-(benzo[d]oxazol-5-yl)phenyl)-N-(pyridin-3-yl)butanamide] |  | 0.501 to 1
O=C(CCCc1ccc(-c2cc(Cl)ccc2F)cc1)Nc1cccnc1 [Compound 179, 4-(5′-chloro-2′-fluoro-[1,1′-biphenyl]-4-yl)-N-(pyridin-3-yl)butanamide] |  | > 5
O=C(CCCc1ccc(-c2ccccc2)cc1)Nc1cccnc1 [Compound 151, 4-([1,1′-biphenyl]-4-yl)-N-(pyridin-3-yl)butanamide] |  | 1 to 5
Cc1cnoc1C(=O)NCCCc1ccc(-c2ccccc2F)cc1 [Compound 145, N-(3-(2′-fluoro-[1,1′-biphenyl]-4-yl)propyl)-4-methylisoxazole-5-carboxamide] |  | > 5
O=S(=O)(NCCCc1ccc(-c2ccccc2F)cc1)c1cccnc1 [Compound 262, N-(3-(2′-fluoro-[1,1′-biphenyl]-4-yl)propyl) pyridine-3-sulfonamide] |  | 1 to 5
Cc1ccc(C(=O)NCCCc2ccc(-c3ccccc3F)cc2)c(C)n1 [Compound 99, N-(3-(2′-fluoro-[1,1′-biphenyl]-4-yl)propyl)-2,6-dimethylnicotinamide] |  | 1 to 5
O=C(CCCc1ccc(-c2ccccc2F)cc1)NC1CCC(O)CC1 (stereo not drawn) [Compound 62, 4-(2′-fluoro-[1,1′-biphenyl]-4-yl)-N-(4-hydroxycyclohexyl)butanamide] |  | > 5
COc1ccc(F)c(-c2ccc(CCCC(=O)Nc3cccnc3)cc2)c1 [Compound 175, 4-(2′-fluoro-5′-methoxy-[1,1′-biphenyl]-4-yl)-N-(pyridin-3-yl)butanamide] |  | 0.501 to 1
O=C(CCCc1ccc(Cc2ccccc2)cc1)Nc1cccnc1 [Compound 186, 4-(4-benzylphenyl)-N-(pyridin-3-yl)butanamide] |  | > 5

SMILES | % Tubulin Polymerization at 60 min (tubulin) | IC50 (U87MG cells) [µM]
Cc1ncoc1C(=O)NCCCc1ccc(-c2ccccc2F)cc1 [Compound 290, N-(3-(2′-fluoro-[1,1′-biphenyl]-4-yl)propyl)-4-methyloxazole-5-carboxamide] |  | > 5
COc1cccc(-c2ccc(CCCNC(=O)c3cc(C)nn3C)cc2)c1F [Compound 238, N-(3-(2′-fluoro-3′-methoxy-[1,1′-biphenyl]-4-yl)propyl)-1,3-dimethyl-1H-pyrazole-5-carboxamide] |  | 0.501 to 1
Cc1cc2[nH]ncc2cc1-c1ccc(CCCC(=O)Nc2cccnc2)cc1 [Compound 302, 4-(4-(6-methyl-1H-indazol-5-yl)phenyl)-N-(pyridin-3-yl)butanamide] |  | 1 to 5
Cc1nn(C)c2ccc(-c3ccc(CCCC(=O)Nc4cccnc4)cc3)cc12 [Compound 191, 4-(4-(1,3-dimethyl-1H-indazol-5-yl)phenyl)-N-(pyridin-3-yl)butanamide] |  | 1 to 5
COc1cccc(-c2ccc(CCCC(=O)Nc3cccnc3)cc2)c1F [Compound 184, 4-(2′-fluoro-3′-methoxy-[1,1′-biphenyl]-4-yl)-N-(pyridin-3-yl)butanamide] |  | < 0.5
O=C(CCCc1ccc(-c2ccccc2F)cc1)Nc1ccccn1 [Compound 40, 4-(2′-fluoro-[1,1′-biphenyl]-4-yl)-N-(pyridin-2-yl)butanamide] |  | > 5
O=C(Cc1noc2ccccc12)NCCCc1ccc(-c2ccccc2F)cc1 [Compound 102, 2-(benzo[d]isoxazol-3-yl)-N-(3-(2′-fluoro-[1,1′-biphenyl]-4-yl)propyl)acetamide] |  | > 5
Cc1nc2cc(C(=O)NCCCc3ccc(-c4ccccc4F)cc3)ccc2[nH]1 [Compound 100, N-(3-(2′-fluoro-[1,1′-biphenyl]-4-yl)propyl)-2-methyl-1H-benzo[d]imidazole-5-carboxamide] |  | > 5
O=C(CCCc1ccc(-c2ccccc2F)cc1)NC1CCC(F)(F)CC1 [Compound 54, N-(4,4-difluorocyclohexyl)-4-(2′-fluoro-[1,1′-biphenyl]-4-yl)butanamide] |  | > 5
O=C(NCCCc1ccc(-c2ccccc2F)cc1)c1cc[nH]c1 [Compound 118, N-(3-(2′-fluoro-[1,1′-biphenyl]-4-yl)propyl)-1H-pyrrole-3-carboxamide] |  | > 5
O=C(NCCCc1ccc(-c2ccccc2F)cc1)[C@H]1C[C@@H](O)C1 [Compound 77, (1s,3s)-N-(3-(2′-fluoro-[1,1′-biphenyl]-4-yl)propyl)-3-hydroxycyclobutane-1-carboxamide] |  | > 5
Cc1cnc(C(=O)NCCCc2ccc(-c3ccccc3F)cc2)s1 [Compound 132, N-(3-(2′-fluoro-[1,1′-biphenyl]-4-yl)propyl)-5-methylthiazole-2-carboxamide] |  | > 5
O=C(NCCCc1ccc(-c2ccccc2F)cc1)c1ccc2nccnc2c1 [Compound 123, N-(3-(2′-fluoro-[1,1′-biphenyl]-4-yl)propyl)quinoxaline-6-carboxamide] |  | > 5
O=C(CCCc1ccc(-c2ccccc2F)cc1)Nc1ccc2[nH]ccc2c1 [Compound 6, 4-(2′-fluoro-[1,1′-biphenyl]-4-yl)-N-(1H-indol-5-yl)butanamide] |  | 1 to 5
O=C(CCCc1ccc(-c2ccccc2F)cc1)Nc1ccc2c(c1)OCC(=O)N2 [Compound 53, 4-(2′-fluoro-[1,1′-biphenyl]-4-yl)-N-(3-oxo-3,4-dihydro-2H-benzo[b][1,4]oxazin-7-yl)butanamide] |  | 0.501 to 1
O=C(CCCc1ccc(-c2ccc(C(F)(F)F)nc2)cc1)Nc1cccnc1 [Compound 155, N-(pyridin-3-yl)-4-(4-(6-(trifluoromethyl)pyridin-3-yl)phenyl)butanamide] |  | 0.501 to 1
Cc1c(-c2ccc(CCCC(=O)Nc3cccnc3)cc2)ccc2[nH]ncc12 [Compound 180, 4-(4-(4-methyl-1H-indazol-5-yl)phenyl)-N-(pyridin-3-yl)butanamide] |  | < 0.5
O=C(CCCc1ccc(-c2ccc3c(c2)NC(=O)C3)cc1)Nc1cccnc1 [Compound 177, 4-(4-(2-oxoindolin-6-yl)phenyl)-N-(pyridin-3-yl)butanamide] |  | 0.501 to 1
O=C(CCCc1ccc(-c2c[nH]c3ncccc23)cc1)Nc1cccnc1 [Compound 295, 4-(4-(1H-pyrrolo[2,3-b]pyridin-3-yl)phenyl)-N-(pyridin-3-yl)butanamide] |  | 1 to 5
O=C(NCCCc1ccc(-c2ccccc2F)cc1)C1=CN2C=CNC2C=C1 (stereo not drawn) [Compound 82, N-(3-(2′-fluoro-[1,1′-biphenyl]-4-yl)propyl)-1,8a-dihydroimidazo[1,2-a]pyridine-6-carboxamide] |  | > 5
COc1cccc(-c2ccc(CC(C)(C)CNC(=O)c3ccc(C)nc3)cc2)c1F [Compound 276, N-(3-(2′-fluoro-3′-methoxy-[1,1′-biphenyl]-4-yl)-2,2-dimethylpropyl)-6-methylnicotinamide] |  | 1 to 5
